{"source": "ChEMBL document CHEMBL1201862", "about": "“PubChem BioAssay data set” (2004)", "key": {"cells [1]": {"assay": "cells", "assay_type": "functional, cell-based"}, "cells [2]": {"assay": "cells", "assay_type": "functional, cell-based", "remark": "listed apart in the source"}, "cells [3]": {"assay": "cells", "assay_type": "functional, cell-based", "remark": "listed apart in the source"}, "[4]": {"biological_target": "T1, Trace amine-associated receptor 1 (Homo sapiens, UniProt Q96RJ0)", "T1 sequence (Q96RJ0 whole entry)": "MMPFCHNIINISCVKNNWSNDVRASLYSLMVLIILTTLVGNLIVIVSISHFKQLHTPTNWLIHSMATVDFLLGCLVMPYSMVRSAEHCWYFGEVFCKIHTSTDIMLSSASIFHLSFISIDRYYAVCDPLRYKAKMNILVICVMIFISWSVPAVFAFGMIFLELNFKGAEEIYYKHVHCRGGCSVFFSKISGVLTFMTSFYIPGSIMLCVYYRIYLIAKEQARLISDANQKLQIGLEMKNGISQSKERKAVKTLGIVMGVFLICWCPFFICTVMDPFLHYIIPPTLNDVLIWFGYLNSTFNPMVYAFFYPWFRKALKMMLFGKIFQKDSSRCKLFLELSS", "assay": "Fluorescence-based cell-based high throughput dose response assay to identify agonists of the human trace amine associated receptor 1 (TAAR1).", "assay_type": "functional"}, "[5]": {"biological_target": "T1, Trace amine-associated receptor 1", "assay": "Counterscreen for agonists of the human trace amine associated receptor 1 (hTAAR1): Fluorescence-based cell-based high throughput dose response assay to identify hTAAR1 agonist that also desensitize TAAR1 receptor response.", "assay_type": "functional"}, "cells [6]": {"assay": "cells", "assay_type": "functional, cell-based", "remark": "listed apart in the source"}, "[7]": {"system": "Streptococcus sp. 'group A'", "assay": "Streptococcus pyogenes SK(-)GAS viability under kanamycin – luminescence, BacTiterGlo, confirmation, counter-screen for streptokinase expression inhibitor project, dose response (AID 1900)", "assay_type": "functional, organism-based"}, "Streptokinase A": {"biological_target": "T2, Streptokinase A (Streptococcus pyogenes serotype M1, UniProt P10520)", "T2 sequence (P10520 whole entry)": "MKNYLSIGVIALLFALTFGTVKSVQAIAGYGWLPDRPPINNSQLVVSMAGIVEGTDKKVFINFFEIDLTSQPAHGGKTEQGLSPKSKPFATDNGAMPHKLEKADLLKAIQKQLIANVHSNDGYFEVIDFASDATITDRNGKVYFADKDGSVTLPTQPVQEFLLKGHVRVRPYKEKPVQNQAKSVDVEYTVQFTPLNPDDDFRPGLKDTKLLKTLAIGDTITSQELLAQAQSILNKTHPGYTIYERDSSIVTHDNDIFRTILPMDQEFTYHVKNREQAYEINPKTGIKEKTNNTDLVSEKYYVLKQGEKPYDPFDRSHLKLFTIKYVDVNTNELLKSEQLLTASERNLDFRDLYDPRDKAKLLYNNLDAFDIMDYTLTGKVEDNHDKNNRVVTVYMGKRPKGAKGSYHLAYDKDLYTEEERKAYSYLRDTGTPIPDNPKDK", "assay": "viability-normalized secreted streptokinase activity reduction – plasminogen activation absorbance, OD405, dose response (AID 1914);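 further: secreted streptokinase activity via plasminogen activation per viability signal from cell pellet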", "assay_type": "functional, Streptococcus pyogenes M1 GAS"}, "Streptococcus": {"system": "Streptococcus", "assay": "GAS UMAA2166 growth inhibition – luminescence, BacTiterGlo, counter-screen for streptokinase expression inhibitor project, dose response (AID 1915);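 further: potency for reduction of bacterial viability or growth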", "assay_type": "functional, organism-based"}, "[8]": {"biological_target": "Voltage-dependent T-type calcium channel subunit alpha-1H (Homo sapiens, UniProt O95180)", "sequence (O95180 whole entry)": "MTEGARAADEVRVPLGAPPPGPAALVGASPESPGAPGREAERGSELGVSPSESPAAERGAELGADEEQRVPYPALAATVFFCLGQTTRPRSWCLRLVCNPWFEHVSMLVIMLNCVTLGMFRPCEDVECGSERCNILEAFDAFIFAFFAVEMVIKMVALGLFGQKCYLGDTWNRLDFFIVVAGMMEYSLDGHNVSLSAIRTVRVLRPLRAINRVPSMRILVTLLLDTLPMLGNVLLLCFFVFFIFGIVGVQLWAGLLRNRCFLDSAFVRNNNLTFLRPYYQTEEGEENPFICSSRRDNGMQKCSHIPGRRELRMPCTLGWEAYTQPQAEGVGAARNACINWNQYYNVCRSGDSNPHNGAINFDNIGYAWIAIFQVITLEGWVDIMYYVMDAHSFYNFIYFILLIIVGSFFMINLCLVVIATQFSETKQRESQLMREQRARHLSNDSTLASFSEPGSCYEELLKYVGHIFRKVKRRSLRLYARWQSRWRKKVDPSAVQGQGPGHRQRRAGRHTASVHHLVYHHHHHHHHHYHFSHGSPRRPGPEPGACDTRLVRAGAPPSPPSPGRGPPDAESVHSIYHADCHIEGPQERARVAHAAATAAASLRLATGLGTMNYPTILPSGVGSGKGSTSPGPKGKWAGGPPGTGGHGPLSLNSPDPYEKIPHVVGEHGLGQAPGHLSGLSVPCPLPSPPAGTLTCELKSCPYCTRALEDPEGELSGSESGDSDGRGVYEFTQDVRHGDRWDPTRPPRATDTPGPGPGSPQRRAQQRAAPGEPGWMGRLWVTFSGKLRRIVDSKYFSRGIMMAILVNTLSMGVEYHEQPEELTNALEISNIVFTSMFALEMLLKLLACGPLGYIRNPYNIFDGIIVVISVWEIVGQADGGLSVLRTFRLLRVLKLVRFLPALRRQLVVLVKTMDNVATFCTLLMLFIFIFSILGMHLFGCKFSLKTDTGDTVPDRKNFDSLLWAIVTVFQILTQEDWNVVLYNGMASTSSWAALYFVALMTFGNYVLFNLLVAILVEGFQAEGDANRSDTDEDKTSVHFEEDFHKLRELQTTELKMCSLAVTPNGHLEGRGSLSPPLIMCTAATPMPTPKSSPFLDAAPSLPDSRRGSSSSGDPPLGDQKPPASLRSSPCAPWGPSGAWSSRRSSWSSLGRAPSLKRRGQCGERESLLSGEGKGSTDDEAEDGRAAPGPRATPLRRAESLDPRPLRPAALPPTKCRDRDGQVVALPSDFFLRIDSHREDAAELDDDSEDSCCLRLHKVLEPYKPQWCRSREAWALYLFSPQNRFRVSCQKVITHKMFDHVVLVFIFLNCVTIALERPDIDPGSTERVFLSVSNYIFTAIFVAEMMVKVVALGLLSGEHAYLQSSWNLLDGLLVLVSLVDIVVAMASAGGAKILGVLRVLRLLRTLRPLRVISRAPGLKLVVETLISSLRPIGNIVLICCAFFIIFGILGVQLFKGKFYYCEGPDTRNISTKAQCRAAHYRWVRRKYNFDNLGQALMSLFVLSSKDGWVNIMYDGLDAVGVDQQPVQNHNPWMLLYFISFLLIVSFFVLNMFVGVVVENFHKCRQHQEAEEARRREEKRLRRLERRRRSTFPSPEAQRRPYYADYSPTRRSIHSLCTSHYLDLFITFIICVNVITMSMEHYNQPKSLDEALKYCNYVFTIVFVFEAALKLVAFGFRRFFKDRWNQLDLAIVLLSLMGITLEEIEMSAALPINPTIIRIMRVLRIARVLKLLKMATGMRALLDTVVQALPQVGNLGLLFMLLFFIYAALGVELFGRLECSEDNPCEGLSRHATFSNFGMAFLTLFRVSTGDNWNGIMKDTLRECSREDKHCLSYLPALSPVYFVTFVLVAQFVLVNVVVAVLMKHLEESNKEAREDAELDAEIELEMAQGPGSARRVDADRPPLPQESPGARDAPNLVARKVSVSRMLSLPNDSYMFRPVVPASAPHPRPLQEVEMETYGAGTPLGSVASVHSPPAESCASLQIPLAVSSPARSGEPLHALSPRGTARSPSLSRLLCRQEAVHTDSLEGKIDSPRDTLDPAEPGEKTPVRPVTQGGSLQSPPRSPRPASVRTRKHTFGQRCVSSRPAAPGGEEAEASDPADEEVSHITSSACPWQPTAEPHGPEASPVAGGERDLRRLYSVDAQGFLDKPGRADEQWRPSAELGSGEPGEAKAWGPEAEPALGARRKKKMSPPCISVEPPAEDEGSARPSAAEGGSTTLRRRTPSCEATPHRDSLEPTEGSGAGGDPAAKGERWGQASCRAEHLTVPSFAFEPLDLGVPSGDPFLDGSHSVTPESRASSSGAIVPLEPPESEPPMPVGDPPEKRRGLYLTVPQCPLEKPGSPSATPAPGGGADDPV", "assay_type": "functional"}, "H9c2": {"system": "H9c2", "assay": "cells", "assay_type": "functional, cell-based", "conditions": "Rattus norvegicus, H9c2, Myocardium"}, "[9]": {"biological_target": "Peroxisome proliferator-activated receptor gamma/Nuclear receptor coactivator 1 (Homo sapiens, UniProt P37231)", "assay": "(§1) TR-FRET dose response biochemical High Throughput Screening assay for agonists of the steroid receptor coactivator 1 (SRC-1) recruitment by the peroxisome proliferator-activated receptor gamma (PPAR gamma): non-selective agonists. [Related pubchem assays (depositor defined):AID1300, AID1808, AID504735, AID631]", "assay_type": "protein assay"}, "[10]": {"biological_target": "Peroxisome proliferator-activated receptor gamma/Nuclear receptor coactivator 3 (Homo sapiens, UniProt P37231)", "assay": "as §1, with “3 (SRC-3)” for “1 (SRC-1)”, “assays: 1301 (Confirmation screen.), 1048 (Primary screen.)]” for “assays (depositor defined):AID1300, AID1808, AID504735, AID631]”", "assay_type": "functional"}, "[11]": {"biological_target": "Peroxisome proliferator-activated receptor gamma/Nuclear receptor coactivator 2 (Homo sapiens, UniProt P37231)", "assay": "TR-FRET dose response biochemical High Throughput Screening assay for agonists of the steroid receptor coactivator 2 (SRC-2) recruitment by the peroxisome proliferator-activated receptor gamma (PPAR gamma): non-selective agonists. [Related pubchem assays: 1297, 1032 ]", "assay_type": "functional"}, "[12]": {"assay": "HEK-293T cell viability reduction – luminescence, B-cell screen hits, cytotoxicity control for BCR NF-kB inhibitor project, dose response (AID 489021)", "assay_type": "functional, cell-based"}, "[13]": {"biological_target": "Alkaline phosphatase, placental type (Homo sapiens, UniProt P05187)", "sequence (P05187 whole entry)": "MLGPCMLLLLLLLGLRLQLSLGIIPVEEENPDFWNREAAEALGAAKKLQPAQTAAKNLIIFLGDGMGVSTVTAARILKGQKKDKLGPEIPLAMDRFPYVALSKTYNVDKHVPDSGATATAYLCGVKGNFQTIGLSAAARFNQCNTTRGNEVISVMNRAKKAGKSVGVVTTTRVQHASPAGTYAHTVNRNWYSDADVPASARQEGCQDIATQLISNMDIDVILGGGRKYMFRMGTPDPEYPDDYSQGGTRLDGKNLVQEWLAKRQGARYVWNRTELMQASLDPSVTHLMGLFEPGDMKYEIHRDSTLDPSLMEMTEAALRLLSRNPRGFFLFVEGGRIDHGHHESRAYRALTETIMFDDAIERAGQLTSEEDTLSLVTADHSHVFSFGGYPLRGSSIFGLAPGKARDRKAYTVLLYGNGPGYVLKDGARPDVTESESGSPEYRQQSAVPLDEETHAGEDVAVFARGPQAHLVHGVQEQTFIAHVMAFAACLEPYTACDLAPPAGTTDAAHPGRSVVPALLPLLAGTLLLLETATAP", "assay": "human placental alkaline phosphatase inhibition – biochemical, luminescence, confirmation (AID 1512)", "assay_type": "functional"}, "[14]": {"biological_target": "Protein-tyrosine kinase 2-beta (Homo sapiens, UniProt Q14289)", "sequence (Q14289 whole entry)": "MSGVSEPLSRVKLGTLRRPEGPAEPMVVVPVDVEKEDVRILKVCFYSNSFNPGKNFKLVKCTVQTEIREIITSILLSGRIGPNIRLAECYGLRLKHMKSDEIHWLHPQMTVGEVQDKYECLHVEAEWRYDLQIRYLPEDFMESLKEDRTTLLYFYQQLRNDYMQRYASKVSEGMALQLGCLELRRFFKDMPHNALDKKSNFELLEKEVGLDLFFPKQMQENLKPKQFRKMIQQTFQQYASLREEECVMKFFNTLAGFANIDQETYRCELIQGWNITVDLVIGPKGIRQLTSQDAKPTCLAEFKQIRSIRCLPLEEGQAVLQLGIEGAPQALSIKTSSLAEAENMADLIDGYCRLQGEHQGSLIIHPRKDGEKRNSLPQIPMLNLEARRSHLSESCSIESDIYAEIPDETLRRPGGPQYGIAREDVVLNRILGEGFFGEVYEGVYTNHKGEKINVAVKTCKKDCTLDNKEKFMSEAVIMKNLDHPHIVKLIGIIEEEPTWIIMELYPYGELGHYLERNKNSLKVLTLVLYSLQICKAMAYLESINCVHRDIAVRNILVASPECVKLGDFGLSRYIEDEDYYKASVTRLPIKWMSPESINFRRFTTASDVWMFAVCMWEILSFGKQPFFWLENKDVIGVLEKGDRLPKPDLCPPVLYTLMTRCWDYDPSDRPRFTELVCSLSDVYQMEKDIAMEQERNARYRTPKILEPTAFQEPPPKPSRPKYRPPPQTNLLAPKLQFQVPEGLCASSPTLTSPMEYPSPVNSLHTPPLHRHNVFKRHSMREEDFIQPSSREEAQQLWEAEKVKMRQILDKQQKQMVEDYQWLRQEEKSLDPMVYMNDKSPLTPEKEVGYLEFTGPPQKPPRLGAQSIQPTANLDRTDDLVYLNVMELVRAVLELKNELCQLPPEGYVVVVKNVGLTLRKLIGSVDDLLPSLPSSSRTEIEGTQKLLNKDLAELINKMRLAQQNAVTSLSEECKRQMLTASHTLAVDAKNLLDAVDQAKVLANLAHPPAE"}, "HEK293 [15]": {"system": "HEK293", "assay": "inhibition of NOD1-driven NF-kB reporter – cell-based, luminescence, uHTS, primary screen (AID 1578)", "assay_type": "functional", "conditions": "Homo sapiens"}, "HEK293 [16]": {"system": "HEK293", "assay": "cells", "assay_type": "functional, cell-based", "conditions": "Homo sapiens"}, "HEK293 [17]": {"system": "HEK293", "assay": "cells", "assay_type": "functional, cell-based", "conditions": "Homo sapiens", "remark": "listed apart in the source"}, "[18]": {"biological_target": "Nucleotide-binding oligomerization domain-containing protein 2 (Homo sapiens, UniProt Q9HC29)", "sequence (Q9HC29 whole entry, the tested form may be a part)": "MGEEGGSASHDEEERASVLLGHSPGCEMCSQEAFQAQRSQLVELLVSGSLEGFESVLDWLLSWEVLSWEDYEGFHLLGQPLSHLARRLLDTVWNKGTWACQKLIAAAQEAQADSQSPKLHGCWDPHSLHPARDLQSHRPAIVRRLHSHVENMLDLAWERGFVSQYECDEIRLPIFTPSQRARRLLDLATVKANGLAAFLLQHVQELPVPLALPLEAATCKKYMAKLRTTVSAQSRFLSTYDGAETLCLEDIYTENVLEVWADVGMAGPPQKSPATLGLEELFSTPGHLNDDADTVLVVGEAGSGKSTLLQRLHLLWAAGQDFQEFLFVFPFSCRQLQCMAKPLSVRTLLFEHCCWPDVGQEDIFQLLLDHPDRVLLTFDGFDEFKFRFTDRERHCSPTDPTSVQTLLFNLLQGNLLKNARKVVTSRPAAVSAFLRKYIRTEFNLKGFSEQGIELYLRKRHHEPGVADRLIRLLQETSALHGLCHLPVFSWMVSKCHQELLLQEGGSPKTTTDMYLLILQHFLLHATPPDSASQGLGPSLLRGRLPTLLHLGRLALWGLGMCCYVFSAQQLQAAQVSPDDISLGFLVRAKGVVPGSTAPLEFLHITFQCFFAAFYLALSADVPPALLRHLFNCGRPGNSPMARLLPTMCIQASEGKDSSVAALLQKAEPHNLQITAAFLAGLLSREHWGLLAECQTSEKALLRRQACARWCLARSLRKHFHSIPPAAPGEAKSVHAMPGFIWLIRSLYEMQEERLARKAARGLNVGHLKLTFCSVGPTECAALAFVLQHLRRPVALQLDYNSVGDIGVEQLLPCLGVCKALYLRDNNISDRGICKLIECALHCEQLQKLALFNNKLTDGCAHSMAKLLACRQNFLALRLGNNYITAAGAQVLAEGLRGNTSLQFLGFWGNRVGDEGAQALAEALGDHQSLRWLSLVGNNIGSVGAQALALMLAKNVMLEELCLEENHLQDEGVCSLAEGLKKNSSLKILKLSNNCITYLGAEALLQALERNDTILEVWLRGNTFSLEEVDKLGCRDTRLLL", "assay": "inhibition of NOD2-driven NF-kB reporter – cell-based, luminescence, uHTS, HEK293 (AID 1566)", "assay_type": "functional"}, "HEK293 [19]": {"system": "HEK293", "assay": "NOD2 signaling inhibitors in MDP-stimulated cells, cell-based, uHTS, luminescence (AID 2001)", "assay_type": "functional", "conditions": "Homo sapiens"}, "HEK293 [20]": {"system": "HEK293", "assay": "cells", "assay_type": "functional, cell-based", "conditions": "Homo sapiens", "remark": "listed apart in the source"}, "[21]": {"assay": "HEK-293T viability loss after treatment – luminescence, T-cell screen hits, cytotoxicity control for TCR NF-kB inhibitor project, dose response (AID 489026)", "assay_type": "functional, cell-based"}}, "note": "The source made the active and inactive calls.", "data": [{"compound": "CC1SC(NC(=O)c2ccncc2)=NC1=O", "note": "(stereo not drawn)", "values": [{"measurement": "EC50", "setting": "cells [1]", "result": "> 350 µM (not active)"}, {"measurement": "EC50", "setting": "cells [2]", "result": "> 350 µM (not active)"}]}, {"compound": "O=C(O)c1ccccc1C(=O)NCC(O)c1ccccc1", "note": "(stereo not drawn)", "values": [{"measurement": "IC50", "setting": "cells [3]", "result": "> 29.9 µM (inactive)"}, {"measurement": "EC50", "setting": "[4]", "result": "5.05 µM (active)"}, {"measurement": "IC50", "setting": "[5]", "result": "> 29.9 µM (inactive)"}, {"measurement": "EC50", "setting": "cells [6]", "result": "> 29.9 µM (inactive)"}]}, {"compound": "O=C(CCCSc1ccccc1)Nc1nc(-c2ccccn2)cs1", "values": [{"measurement": "EC50", "setting": "[7]", "result": "5.14 µM (active)"}, {"measurement": "EC50", "setting": "Streptokinase A", "result": "> 150 µM (not active)"}, {"measurement": "EC50", "setting": "Streptococcus", "result": "45.8 µM (active)"}, {"measurement": "EC50", "setting": "[8]", "result": "4.7 µM (active)"}, {"measurement": "IC50", "setting": "H9c2", "result": "> 79 µM (inactive)"}]}, {"compound": "CCn1c(=O)cc(SCC(=O)N2CCC(C)CC2)c2ccccc21", "values": [{"measurement": "EC50", "setting": "[9]", "result": "> 79.4 µM (inactive)"}, {"measurement": "EC50", "setting": "[10]", "result": "> 79.4 µM (not active)"}, {"measurement": "EC50", "setting": "[11]", "result": "> 79.4 µM (not active)"}, {"measurement": "IC50", "setting": "[12]", "result": "> 80 µM (inactive)"}]}, {"compound": "CCc1ccc2nc(Nc3nc(COC)cc(=O)[nH]3)nc(C)c2c1", "values": [{"measurement": "IC50", "setting": "[13]", "result": "> 100 µM (inactive)"}]}, {"compound": "CCc1ccc2nc(Nc3nc(O)cc(COC)n3)nc(C)c2c1", "values": [{"measurement": "IC50", "setting": "[12]", "result": "> 80 µM (inactive)"}]}, {"compound": "CN1C(=O)c2cccc3c(S(=O)(=O)NCc4ccco4)ccc1c23", "values": [{"measurement": "IC50", "setting": "[14]", "result": "> 69.5 µM (not active)"}]}, {"compound": "Cc1csc2ncnc(NC3CCN(Cc4ccccc4)CC3)c12", "values": [{"measurement": "EC50", "setting": "HEK293 [15]", "result": "1.92 µM (active)"}, {"measurement": "IC50", "setting": "HEK293 [16]", "result": "1.61 µM (active)"}, {"measurement": "IC50", "setting": "HEK293 [17]", "result": "> 20 µM (inactive)"}, {"measurement": "EC50", "setting": "[18]", "result": "7.78 µM (active)"}, {"measurement": "IC50", "setting": "HEK293 [19]", "result": "2.36 µM (active)"}, {"measurement": "IC50", "setting": "HEK293 [20]", "result": "> 20 µM (inactive)"}, {"measurement": "IC50", "setting": "[21]", "result": "> 80 µM (inactive)"}]}, {"compound": "CC(C)C(=O)Nc1ccc(NC(=O)c2ccc3c(c2)OCO3)cc1", "values": [{"measurement": "IC50", "setting": "[12]", "result": "> 80 µM (inactive)"}]}, {"compound": "Cc1cccc(C)c1NC(=O)C(c1ccc(Cl)cc1Cl)N1CCCCC1", "note": "(stereo not drawn)", "values": [{"measurement": "EC50", "setting": "[8]", "result": "2.39 µM (active)"}]}, {"compound": "COc1ccc(O)c(-c2[nH]ncc2C(=O)c2ccccc2)c1", "values": [{"measurement": "EC50", "setting": "HEK293 [15]", "result": "15 µM (active)"}, {"measurement": "IC50", "setting": "HEK293 [16]", "result": "9.31 µM (active)"}, {"measurement": "IC50", "setting": "HEK293 [17]", "result": "> 20 µM (inactive)"}, {"measurement": "EC50", "setting": "[18]", "result": "14.3 µM (active)"}, {"measurement": "IC50", "setting": "HEK293 [19]", "result": "14 µM (inactive)"}, {"measurement": "IC50", "setting": "HEK293 [20]", "result": "> 20 µM (inactive)"}]}]}
